Test results from the supplement of paper PMC10307832.

What was measured:
Assay in all cases: relative viability (nuclei count vs DMSO), 5 days (fraction); higher = more cells survive
NCI-H1755 = system: NCI-H1755
How it was run: (§1)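 After 5 days of treatment, lung cancer cells in 1536-well plates were fixed and stained in a single step (final 0.05% Triton X-100, 1% formaldehyde, 1 ug/ml Hoechst) and their nuclei counted on 4× images. Treatment had been applied by pin tool the day after seeding as one drug alone or as a fixed anchor-drug dose with five library-drug doses (not always all listed) in √10 steps. Relative viability is the nuclei count of treated wells divided by that of vehicle wells, and values are medians of duplicate plates.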

NCI-H2023 = system: NCI-H2023
How it was run: as §1

NCI-H1734 = system: NCI-H1734
How it was run: as §1

LU99A = system: LU99A
How it was run: as §1

NCI-H460 = system: NCI-H460
How it was run: as §1

HCC-44 = system: HCC-44
How it was run: as §1

LOU-NH91 = system: LOU-NH91
How it was run: as §1

HCC-366 = system: HCC-366
How it was run: as §1

NCI-H1437 = system: NCI-H1437
How it was run: as §1

NCI-H1355 = system: NCI-H1355
How it was run: as §1

NCI-H1650 = system: NCI-H1650
How it was run: as §1

NCI-H358 = system: NCI-H358
How it was run: as §1

NCI-H2085 = system: NCI-H2085
How it was run: as §1

NCI-H838 = system: NCI-H838
How it was run: as §1

CAL-12T = system: CAL-12T
How it was run: as §1

NCI-H1975 = system: NCI-H1975
How it was run: as §1

EKVX = system: EKVX
How it was run: as §1

NCI-H1395 = system: NCI-H1395
How it was run: as §1

NCI-H2342 = system: NCI-H2342
How it was run: as §1

BEN = system: BEN
How it was run: as §1

NCI-H1651 = system: NCI-H1651
How it was run: as §1

NCI-H441 = system: NCI-H441
How it was run: as §1

O=C(O)c1ccc(-c2c[nH]c3ncc(-c4ccccc4)cc23)cc1C1CCCC1 + CC(=O)Nc1cccc(-n2c(=O)n(C3CC3)c(=O)c3c(Nc4ccc(I)cc4F)n(C)c(=O)c(C)c32)c1 [Trametinib] (partner 0.02 µM) gave a relative viability (NCI-H1755; first compound 0.04 µM) of 0.778, a relative viability (NCI-H1755; first compound 0.1265 µM) of 0.777 and a relative viability (NCI-H1755; first compound 0.4 µM) of 0.799. For the same molecule, the relative viability (NCI-H1755; first compound 1.265 µM) was 0.754, the relative viability (NCI-H2023; first compound 0.04 µM) was 0.525 and the relative viability (NCI-H2023; first compound 0.1265 µM) was 0.55. For the same molecule, the relative viability (NCI-H2023; first compound 0.4 µM) was 0.618, the relative viability (NCI-H2023; first compound 1.265 µM) was 0.413 and the relative viability (NCI-H1734; first compound 0.04 µM) was 0.618. For the same molecule, the relative viability (NCI-H1734; first compound 0.1265 µM) was 0.706, the relative viability (NCI-H1734; first compound 0.4 µM) was 0.614 and the relative viability (NCI-H1734; first compound 1.265 µM) was 0.585. It also gave a relative viability (LU99A; first compound 0.04 µM) of 0.575, a relative viability (LU99A; first compound 0.1265 µM) of 0.516 and a relative viability (LU99A; first compound 0.4 µM) of 0.52. For the same molecule, the relative viability (LU99A; first compound 1.265 µM) was 0.51, the relative viability (NCI-H460; first compound 0.04 µM) was 0.13 and the relative viability (NCI-H460; first compound 0.1265 µM) was 0.189. It also gave a relative viability (NCI-H460; first compound 0.4 µM) of 0.238, a relative viability (NCI-H460; first compound 1.265 µM) of 0.23 and a relative viability (HCC-44; first compound 0.04 µM) of 1. The relative viability (HCC-44; first compound 0.1265 µM) was 1.02, the relative viability (HCC-44; first compound 0.4 µM) was 0.908 and the relative viability (HCC-44; first compound 1.265 µM) was 1.01. For the same molecule, the relative viability (LOU-NH91; first compound 0.04 µM) was 0.774, the relative viability (LOU-NH91; first compound 0.1265 µM) was 0.848 and the relative viability (LOU-NH91; first compound 0.4 µM) was 0.773. It also gave a relative viability (LOU-NH91; first compound 1.265 µM) of 0.681, a relative viability (HCC-366; first compound 0.04 µM) of 0.343 and a relative viability (HCC-366; first compound 0.1265 µM) of 0.466. It also gave a relative viability (HCC-366; first compound 0.4 µM) of 0.311, a relative viability (HCC-366; first compound 1.265 µM) of 0.309 and a relative viability (NCI-H1437; first compound 0.04 µM) of 0.476. For the same molecule, the relative viability (NCI-H1437; first compound 0.1265 µM) was 0.609, the relative viability (NCI-H1437; first compound 0.4 µM) was 0.541 and the relative viability (NCI-H1437; first compound 1.265 µM) was 0.202. The relative viability (NCI-H1355; first compound 0.04 µM) was 0.42, the relative viability (NCI-H1355; first compound 0.1265 µM) was 0.412 and the relative viability (NCI-H1355; first compound 0.4 µM) was 0.459. For the same molecule, the relative viability (NCI-H1355; first compound 1.265 µM) was 0.391, the relative viability (NCI-H1650; first compound 0.04 µM) was 0.54 and the relative viability (NCI-H1650; first compound 0.1265 µM) was 0.684. The relative viability (NCI-H1650; first compound 0.4 µM) was 0.758, the relative viability (NCI-H1650; first compound 1.265 µM) was 0.49 and the relative viability (NCI-H358; first compound 0.04 µM) was 0.146. It also gave a relative viability (NCI-H358; first compound 0.1265 µM) of 0.129, a relative viability (NCI-H358; first compound 0.4 µM) of 0.138 and a relative viability (NCI-H358; first compound 1.265 µM) of 0.0857. It also gave a relative viability (NCI-H2085; first compound 0.04 µM) of 0.508, a relative viability (NCI-H2085; first compound 0.1265 µM) of 0.488 and a relative viability (NCI-H2085; first compound 0.4 µM) of 0.499. It also gave a relative viability (NCI-H2085; first compound 1.265 µM) of 0.384, a relative viability (NCI-H838; first compound 0.04 µM) of 0.563 and a relative viability (NCI-H838; first compound 0.1265 µM) of 0.561. For the same molecule, the relative viability (NCI-H838; first compound 0.4 µM) was 0.569, the relative viability (NCI-H838; first compound 1.265 µM) was 0.472 and the relative viability (CAL-12T; first compound 0.04 µM) was 0.327. It also gave a relative viability (CAL-12T; first compound 0.1265 µM) of 0.372, a relative viability (CAL-12T; first compound 0.4 µM) of 0.369 and a relative viability (CAL-12T; first compound 1.265 µM) of 0.333. For the same molecule, the relative viability (NCI-H1975; first compound 0.04 µM) was 0.319, the relative viability (NCI-H1975; first compound 0.1265 µM) was 0.435 and the relative viability (NCI-H1975; first compound 0.4 µM) was 0.395. The relative viability (NCI-H1975; first compound 1.265 µM) was 0.32, the relative viability (EKVX; first compound 0.04 µM) was 0.322 and the relative viability (EKVX; first compound 0.1265 µM) was 0.408. The relative viability (EKVX; first compound 0.4 µM) was 0.33, the relative viability (EKVX; first compound 1.265 µM) was 0.316 and the relative viability (NCI-H1395; first compound 0.04 µM) was 0.987. For the same molecule, the relative viability (NCI-H1395; first compound 0.1265 µM) was 1.09, the relative viability (NCI-H1395; first compound 0.4 µM) was 1.02 and the relative viability (NCI-H1395; first compound 1.265 µM) was 0.957. It also gave a relative viability (NCI-H2342; first compound 0.04 µM) of 0.768, a relative viability (NCI-H2342; first compound 0.1265 µM) of 0.839 and a relative viability (NCI-H2342; first compound 0.4 µM) of 0.906. For the same molecule, the relative viability (NCI-H2342; first compound 1.265 µM) was 0.711, the relative viability (BEN; first compound 0.04 µM) was 1.19 and the relative viability (BEN; first compound 0.1265 µM) was 1.05. The relative viability (BEN; first compound 0.4 µM) was 1.08, the relative viability (BEN; first compound 1.265 µM) was 0.957 and the relative viability (NCI-H1651; first compound 0.04 µM) was 0.822. It also gave a relative viability (NCI-H1651; first compound 0.1265 µM) of 0.853, a relative viability (NCI-H1651; first compound 0.4 µM) of 0.829 and a relative viability (NCI-H1651; first compound 1.265 µM) of 0.714. It also gave a relative viability (NCI-H441; first compound 0.04 µM) of 0.48, a relative viability (NCI-H441; first compound 0.1265 µM) of 0.494 and a relative viability (NCI-H441; first compound 0.4 µM) of 0.393. The relative viability (NCI-H441; first compound 1.265 µM) was 0.464.
